The results in this text go back to patent publication US20230256094A1, “CANCER RADIOSENSITIZATION BY IN SITU FORMATION OF GOLD NANOPARTICLES AND/OR GOLD NANOCLUSTERS” (BOARD OF REGENTS, THE UNIVERSITY OF TEXAS SYSTEM, priority 2020, published 2023).

“Also recorded” adds a separate entry of the source.

Data set [1] deals with PANC1 xenografts in nu/nu mice. The data set is described as follows: Tumor volume after 10 Gy X-ray irradiation in xenografts. The format is in vivo. To be noted: 48 hours after treatment with 1.00 mM.
Data set [2] has as its system PANC1 pancreatic cancer cells. The data set is described as follows: Longitudinal live cell confocal fluorescence imaging of the intracellular distribution of GNCs. The format is cell-based, human. The note with it: 0.20 mM, 20 hr time period. The source says:
2.1. Intracellular distribution and time dependence of gold nanocluster (GNC) in situ formation. […] Then, we used longitudinal live cell confocal fluorescence imaging to observe time dependence of the intracellular distribution of GNCs formed through biomineralization of Au^3+.

Data set [3] deals with PANC1 pancreatic cancer. The data set is described as follows: JC-1 mitochondrial depolarization assay (cell viability). It counts as cell-based. The note with it: 0.20-1.50 mM, 24 hour. How it is done:
FIG. 19 reports cell viability as a function of 24 hour Au^3+ treatments at varied concentrations determined via JC-1 mitochondrial depolarization assay and in full cell media to PANC1 pancreatic cancer.
(§1) The JC-1 assay measures the charge potential of the mitochondria of cells through the fluorometric ratio of the JC-1 dye (ThermoFisher Scientific, Waltham, Mass.). JC-1 is a cationic carbocyanine dye that accumulates in mitochondria. The dye exists as a monomer at low concentrations and yields green fluorescence, similar to fluorescein. […] These characteristics make JC-1 a sensitive marker for mitochondrial membrane potential. In other words, mitochondrial depolarization is indicated by a decrease in the red/green fluorescence intensity ratio. Mitochondrial depolarization is an indicator of reduced cell viability.
2.4. Characterize cytotoxicity of gold atom treatment. An MTS viability assay was used with 0-2.0 mM Au^3+ dose range. […] MTS assay was not usable at concentrations >0.75 mM Au^3+ due to intracellular formation of larger GNPs and their absorbance interfering with the MTS results. Therefore, at higher Au^3+ we switched to AO/PI live-dead staining (FIG. 15) and JC-1 mitochondrial depolarization assays (FIG. 19). JC-1 assay indicated cell viability ˜80% for concentrations between 0.20-1.50 mM Au^3+.

For data set [4], the system named is PANC1 pancreatic cancer. The data set is described as follows: JC-1 assay of mitochondrial polarization after irradiation. It counts as cell-based, human. To be noted: 24 hr post-irradiation, 8 Gy. The protocol: FIG. 22 reports on a mechanistic study of radiosensitization quantifying mitochondrial depolarization through JC-1 assay measured at 0, 1, and 24 hours, resulting from 24 hour, 0.20 mM Au^3+ treatments (lower three) compared against non-treated (upper three) combined with either 0 Gy or 8 Gy x-ray irradiation. Treatments are in full cell media to PANC1 pancreatic cancer.
as §1
(§2) Further, we characterized the mechanisms of radiosensitization through (i) quantification of double stranded DNA breaks via y-H2AX Foci (FIG. 21), (ii) mitochondrial polarization via JC-1 assay (FIG. 22), (iii) NADP total (FIG. 23) and NADP:NADPH ratio (FIG. 24) via NADP(H) assay, and (iv) peroxidation production via TBARS assay (FIG. 25).

For the next data set, the system named is PANC1 cells. The data set is described as follows: Clonogenic survival assay of radiosensitization. The format is cell-based, human. The note with it: 0.20 mM, 24 hrs. The protocol: FIG. 20 presents evidence of radiosensitization resulting from 24 hour 0.20 mM Au^3+ treatments (lower plot) compared against non-treated (upper plot) determined via clonogenic survival assay and in full cell media to PANC1 pancreatic cancer.
(§3) 2.5. Evaluate radiosensitization efficacy and radiosensitization mechanisms for in situ synthetized GNCs. Based on the studies described in Sections 2.3-2.4, we selected the following conditions for radiosensitization studies in cell culture: 24 hr media conditioning by cells, 10% FBS (v/v) within, and 0.20 mM Au^3+ for 24 hrs.
A standard clonogenic assay was used to evaluate radiosensitization efficacy of intracellular synthetized GNC in PANC1 cells (FIG. 20). […] Dose enhancement factor at 10% surviving fraction (DEF10%) was calculated at 1.317 indicative of a strong radiosensitization in Au^3+ treated cells.

In data set [5] the test system is pancreatic cancer cells (LTPA) vs pancreatic non-cancerous cells (MS1). The data set is described as follows: Confocal fluorescence imaging of intracellular GNC formation, cancerous vs non-cancerous cells. The format is cell-based. The protocol: Hoechst 33342 stain was used for nuclear contrast. Red channel was used for detection of GNCs with 610 nm emission and 561 nm laser excitation. Scale bars are 25 μm.
Our initial evaluation of intracellular gold nanocluster formation was performed with pancreatic cancer cells (LTPA) and pancreatic non-cancerous cells (MS1) (FIG. 6A-6B). […] Live cell nuclear stain, Hoechst 33342, was used to define the location of nuclei.
Radiosensitization due to intracellular GNC formation (i.e., delivery of Au^3+) was compared between cancerous and non-cancerous cells using a standard clonal assay. For radiosensitization, cells were incubated with 0.1 mM of buffered chloroauric acid in cell culture media for 24 hours. Then, the cells were lifted and plated in 30 mm culture dishes at optimized cell densities for observation of colony formation following irradiation with X-rays at dosages ranging from 0 to 8 Gy (XRAD SmART). […] The radiosensitization results correlated well with the fluorescence images showing greater production of GNCs by cancerous cells (FIG. 6A-6B). For LTPA pancreatic cancer cells the surviving fraction values decreased by a factor of 2.3x and 3.5x for radiation of 4 Gy and 6 Gy, respectively, in cells treated with gold atoms compared to untreated control (FIG. 6B). […]

The subject of data set [6] is pancreatic cancer cells (MIAPACA2). The data set is described as follows: Confocal fluorescence imaging of in situ GNC synthesis. The format is cell-based, human. The note with it: MIAPACA2; 1 mM, 24 hours; 561 nm excitation, 610 nm emission. How it is done: FIG. 4 presents fluorescence confocal images of non-cancerous (HPDE) and cancerous (MIAPaCa2) pancreatic cells treated with either 1 mM of Au^3+ gold ions or premade albumin-GNCs at 1 mM Au^0 for 24 hours. (From left to right) Cells: untreated; treated with albumin-GNCs; treated with Au^3+ gold ions. […] The strong red fluorescence in cancer cells indicated intracellular synthesis of GNCs from gold ions. Scale bars are 25 μm.
We compared in situ synthesis of GNCs by pancreatic cancer cells (MIAPACA2) and pancreatic noncancerous cells (HPDE) (FIG. 4). Confocal fluorescence images were obtained using a Leica TCS SP8 confocal microscope with 561 nm excitation and 610 nm emission optimized for detection of GNCs.

Data set [7] relates to PANC1 pancreatic cancer. The data set is described as follows: gamma H2AX foci quantification of double stranded DNA breaks. The format is cell-based, human. How it is done:
FIG. 21 reports on a mechanistic study of radiosensitization quantifying gamma H2AX foci through fluorescent antibody staining measured at 0, 4, and 24 hours, resulting from 24 hour 0.20 mM Au^3+ treatments (lower three) compared against non-treated (upper three) combined with either 0 Gy or 8 Gy x-ray irradiation. Treatments are in full cell media to PANC1 pancreatic cancer.
as §3, §2

For the compound `[Au+3].[Cl-].[Cl-].[Cl-].[Cl-].[H+]` [Au^3+, chloroauric acid], the “radiosensitization effect by tumor volume measurements” value in data set [1] is on record as “evidence of radiosensitization effect”. In data set [2], the “subcellular region of greatest GNC formation” value is “nucleolus had the highest rate of GNC formation; also recorded: greatest in the nucleolus”. Moreover, the “cell viability (JC-1)” value with PANC1 pancreatic cancer [3] was around 80%. In addition, in the data set with PANC1 pancreatic cancer [4], the “recovery of mitochondrial depolarization” value was “no recovery in the mitochondrial depolarization”. For the same compound, the “Dose enhancement factor at 10% surviving fraction (DEF10%)” value in the data set on PANC1 cells was 1.317. In addition, the average surviving fraction in the data set on PANC1 cells (2 Gy) came to 47.3%; with PANC1 cells (4 Gy) it was 7.3%; in the data set on PANC1 cells (6 Gy), 2.2%. Also, in data set [5], the “GNC formation in cancerous cells as compared to non-cancerous cells” value is reported as “striking increase in GNC formation”. In data set [6], the “GNC fluorescence / GNC formation” value is listed as “ubiquitous”. In the data set on PANC1 pancreatic cancer [7] (4 hrs after 8 Gy irradiation, 0.20 mM, 24 hrs), the “fewer DNA breaks than in untreated control” value is recorded as 29%. The “repair of DNA breaks” value in the data set with PANC1 pancreatic cancer [7] (24 hr post-irradiation, 8 Gy) is listed as “no significant repair”.
